Measurements taken from US20110091470A1, “ANTI-FLT3 ANTIBODIES” (IMCLONE LLC, priority 2008, published 2011).

Key:
[1] = molecular target: wild-type FLT3 expressed on human leukemia cells (human) (UniProt P36888); assay: cell-based or functional assay
[2] = molecular target: ITD-mutant FLT3 expressed on BaF3-ITD cells; assay: cell-based or functional assay
Human Leukemia Cells = assay: ADCC 51Cr release assay with human NK cells; format: cell-based
SEM-K2 cells [3] = assay: SEM-K2 xenograft human leukemia model; format: in vivo, NOD-SCID mice; conditions: 20 mg/kg i.p. two times weekly
[4] = system: human leukemia cells (human CD45) in bone marrow; assay: Bone marrow engraftment of human leukemia cells; format: in vivo, mice; conditions: 500 μg/dose; versus control-IgG treated group
Description: Bone Marrow Engraftment of Human Leukemia Cells: Harvest bone marrow from the femurs of EB10-treated mice (500 μg/dose) and the control-IgG treated group at […]. Analyze cells for human CD45 by flow cytometry at 6 and 14 weeks post leukemia cell injection for the degree of tumor cell infiltration of bone marrow. Compare the degree of tumor cell infiltration of bone marrow using immunohistochemical staining with a fluorescence-labeled anti-human CD45 antibody.

BaF3-ITD cells [5] = assay: BaF3-ITD leukemia model; format: in vivo, athymic (nu/nu) mice
Description: BaF3-ITD Leukemia Model: Initiate i.v. injection of groups of 10 athymic (nu/nu) mice with 5×10^4 BaF3-ITD cells. For statistic analysis, use the non-parametric one-tailed Mann-Whitney Rank Sum test (SigmaStat 2.03, SPSS, Inc., Chicago, Ill.). Start treatment one day after tumor injection. […] Treat the control group with purified human IgG (500 μg/dose). Monitor mice daily for survival.

Stat5 = Stat5 phosphorylation assay; conditions: EOL-1, wild type
EOL-1 leukemia cells = assay: EOL-1 xenograft human AML leukemia model; format: in vivo, NOD-SCID mice
SEM-K2 cells [6] = assay: Combination therapy with EB10 and MTX in SEM-K2 leukemia model; format: in vivo, NOD/SCID mice; conditions: monotherapy: EB10 10 mg/kg i.p. 2×/week; MTX 100 mg/kg Q7D
Description: One day prior to the start of treatment, i.v. inject 65, 7 weeks old, male NOD/SCID mice with 5×10^5 SEM-K2 cells suspended in PBS in a total volume of 200 μl. Drop from the study mice receiving less than 90% of cells intravenously.
Prepare MTX (Sigma Chemical, Cat # M9929) in USP Saline at a concentration of 10 mg/ml and dose Q7D for three cycles. […] Record mouse survival daily. Follow the mice for survival, and sacrifice any mouse displaying signs of morbidity/mortality; mark as dead on the day of sacrifice. End the study on day 168 and sacrifice any mice surviving to that point. Compare survival in the treatment groups by Log Rank Test between treatment groups.

BaF3-ITD cells [7] = assay: FL-independent cell proliferation assay ([3H]-thymidine); format: cell-based
Description: Harvest EOL-1 cells and wash three times using serum-free RPMI 1640 medium. Culture cells in serum-free RPMI 1640 medium for 12 hours. For BaF3-ITD cells, perform the proliferation assay in RPMI 1640 medium supplemented with 10% FCS in the absence of exogenous FL. Reconstitute cells in serum-free AIM-V medium, plate in triplicates in a flat-bottomed 96-well plate (1×104/100 μl/well) and incubate with varying concentrations of antibodies (from 0 to 100 nM) and 30 ng/ml of FL at 37° C. for 68 hours. As a background control, incubate cells with medium alone in the absence of exogenous FL. Pulse cells with 0.25 μCi/well of [^3H]-thymidine for 4 hours. Harvest cells and measure cpm in a PerkinElmer Wallace-1205 Betaplate Liquid Scintillation Counter (Wellesley, Mass.). Calculate the percent inhibition of FL-induced proliferation for EOL-1 cells; deduce the cpm of background proliferation (i.e., cell samples not stimulated with FL) from the cpm of all experimental samples. Calculate percent inhibition using the following formula: [(cpm of untreated sample−cpm of antibody-treated sample)/cpm of untreated sample]×100%.

MOLM-14 leukemia cells = assay: MOLM14 xenograft AML leukemia model; format: in vivo, mice
Description: MOLM14 Xenograft AML Leukemia Model: Irradiate mice with 200 rads with a gamma irradiator and then i.v. inject with 10×10^6 MOLM-14 leukemia cells. Start treatment one day after tumor injection. […] Treat the control group with […] USP saline. Monitor mice daily for survival. Compare survival in the treatment groups by Log Rank test.

[8] = 100 μg/dose i.p. three times weekly
[9] = 500 μg/dose i.p. three times weekly

ITD-mutant FLT3 expressed on BaF3-ITD cells, sequence (chain, as listed by the source mutant limits assumed, form in doubt): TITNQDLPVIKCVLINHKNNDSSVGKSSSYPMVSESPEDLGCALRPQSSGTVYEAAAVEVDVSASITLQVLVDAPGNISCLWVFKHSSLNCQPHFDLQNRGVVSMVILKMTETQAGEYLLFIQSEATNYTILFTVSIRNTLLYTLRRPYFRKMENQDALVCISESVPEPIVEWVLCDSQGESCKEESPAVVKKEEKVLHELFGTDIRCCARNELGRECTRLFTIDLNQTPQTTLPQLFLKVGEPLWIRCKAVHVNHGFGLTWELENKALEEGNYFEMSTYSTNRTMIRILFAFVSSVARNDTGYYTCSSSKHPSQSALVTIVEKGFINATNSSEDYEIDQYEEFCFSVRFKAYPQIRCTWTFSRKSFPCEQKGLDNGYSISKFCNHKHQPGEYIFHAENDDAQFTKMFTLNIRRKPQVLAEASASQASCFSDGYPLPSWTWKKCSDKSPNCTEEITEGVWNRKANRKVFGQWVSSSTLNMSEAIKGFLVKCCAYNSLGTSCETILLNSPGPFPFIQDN
wild-type FLT3 expressed on human leukemia cells (human), sequence (P36888 27-993 limits assumed): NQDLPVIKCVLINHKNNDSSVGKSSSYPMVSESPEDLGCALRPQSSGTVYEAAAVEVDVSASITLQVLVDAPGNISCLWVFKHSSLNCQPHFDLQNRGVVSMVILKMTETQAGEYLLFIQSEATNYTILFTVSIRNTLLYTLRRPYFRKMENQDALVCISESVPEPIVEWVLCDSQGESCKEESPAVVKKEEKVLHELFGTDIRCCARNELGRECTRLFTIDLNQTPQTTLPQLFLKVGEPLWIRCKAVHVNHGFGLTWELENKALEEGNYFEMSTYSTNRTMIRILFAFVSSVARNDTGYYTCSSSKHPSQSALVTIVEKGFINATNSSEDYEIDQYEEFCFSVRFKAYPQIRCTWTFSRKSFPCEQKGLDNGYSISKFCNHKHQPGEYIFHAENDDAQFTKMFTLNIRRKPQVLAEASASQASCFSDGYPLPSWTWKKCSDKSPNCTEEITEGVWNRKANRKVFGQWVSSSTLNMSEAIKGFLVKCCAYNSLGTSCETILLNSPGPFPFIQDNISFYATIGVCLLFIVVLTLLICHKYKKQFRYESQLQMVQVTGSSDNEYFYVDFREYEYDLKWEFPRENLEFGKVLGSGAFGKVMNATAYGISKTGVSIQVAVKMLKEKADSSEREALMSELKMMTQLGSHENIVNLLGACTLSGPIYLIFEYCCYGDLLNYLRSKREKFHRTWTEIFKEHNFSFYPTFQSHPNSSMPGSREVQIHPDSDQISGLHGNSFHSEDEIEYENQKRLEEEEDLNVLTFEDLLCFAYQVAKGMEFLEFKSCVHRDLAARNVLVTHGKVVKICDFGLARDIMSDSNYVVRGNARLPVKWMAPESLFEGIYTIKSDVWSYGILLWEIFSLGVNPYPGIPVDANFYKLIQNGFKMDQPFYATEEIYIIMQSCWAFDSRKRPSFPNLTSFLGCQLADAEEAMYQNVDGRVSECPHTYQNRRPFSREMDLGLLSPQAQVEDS

What does the source list for control IgG (antibody)?
% Inhibition of FL-induced proliferation of EOL-1 cells at 100 nM [1]: 0.4%; % Inhibition of FL-independent proliferation of BaF3-ITD cells at 100 nM [2]: 2%

Which “ADCC response (in words)” value (Human Leukemia Cells) does the source give for “D4-3: recombinant human monoclonal antibody, full length IgG1κ targeting human FLT3; heavy chain SEQ ID NO 27, light chain SEQ ID NO 30 [Antibody D4-3]” here?
The value was “less potent ADCC response”.

What about the median survival (SEM-K2 cells [3]) of the same compound?
Its median survival is 55.5 days.

For “EB10: recombinant human monoclonal antibody, full length IgG1κ targeting human FLT3; heavy chain SEQ ID NO 25, light chain SEQ ID NO 28”, which “number of tumor cells in bone marrow” value [4] is on record?
The value was “decreased significantly”.

And the mean survival time (BaF3-ITD cells [5]; [8])?
The mean survival time was 66.5 ± 32.9 days.

What about the mean survival time (BaF3-ITD cells [5]; [9]) of the same compound?
Its mean survival time is 63.4 ± 44.6 days.

What about the “Inhibition of Stat5 Phosphorylation (IC50)” value (Stat5) of the same compound?
Its value is “No effect”.

And the “ADCC response (in words)” value (Human Leukemia Cells)?
The value was “strong ADCC response”.

And the “effect on survival (in words)” value (EOL-1 leukemia cells; 10 μg)?
Its value is “No effect”.

What about the mean survival time (EOL-1 leukemia cells; [8]) of the same compound?
The mean survival time was 52.8 ± 18.6 days.

And the mean survival time (EOL-1 leukemia cells; 250 μg/dose i.p. three times weekly)?
The mean survival time was 55.3 ± 18.9 days.

And the mean survival time (EOL-1 leukemia cells; [9])?
Its mean survival time is 62.3 ± 18.7 days.

And the “mouse survival in comparison to the control group (in words)” value (SEM-K2 cells [6])?
The value was “significantly prolonged mouse survival”.

What about the median survival (SEM-K2 cells [3]) of the same compound?
The median survival was 108.5 days.

And the “% Inhibition of FL-independent proliferation (Mean ± Standard deviation)” value (“% Inhibition … (Mean ± Standard deviation)” below) (BaF3-ITD cells [7]; 6 nM)?
The value was 9.6 ± 3.1%.

And the “% Inhibition … (Mean ± Standard deviation)” value (BaF3-ITD cells [7]; 13 nM)?
The value was 13.0 ± 4.0%.

What about the “% Inhibition … (Mean ± Standard deviation)” value (BaF3-ITD cells [7]; 25 nM) of the same compound?
Its value is 23.3 ± 0.6%.

And the “% Inhibition … (Mean ± Standard deviation)” value (BaF3-ITD cells [7]; 50 nM)?
The value was 28.6 ± 3.1%.

What about the “% Inhibition … (Mean ± Standard deviation)” value (BaF3-ITD cells [7]; 100 nM) of the same compound?
Its value is 29.2 ± 3.0%.

What about the median survival (MOLM-14 leukemia cells; 0.2 mg/kg i.p. two times weekly) of the same compound?
The median survival was 38.5 days.

What about the median survival (MOLM-14 leukemia cells; 10 mg/kg i.p. two times weekly) of the same compound?
Its median survival is 63 days.

Which “mouse survival in comparison to the control group (in words)” value (SEM-K2 cells [6]) does the source give for `CN(Cc1cnc2nc(N)nc(N)c2n1)c1ccc(C(=O)N[C@@H](CCC(=O)O)C(=O)O)cc1` [MTX, methotrexate, reference compound] here?
The value was “prolonged survival”.
